Measured values taken from patent publication US8642625B2, “Therapeutic agent or preventive agent for urine collection disorder” (Toray Industries, Inc., priority 2010, dated 2014).
Where two headings read alike, the source gives them in different places.

How the values were obtained:
[1] = molecular target: T1, human muscarinic M3 receptor (Homo sapiens, UniProt P20309); test: Binding ability to human muscarinic receptors ([3H]N-Methylscopolamine); settings: 0.8 nmol/L [3H]N-Methylscopolamine, CHO cells
T1 construct: expressed in transfected cells; host or cells: CHO cells
T1 sequence (P20309 whole entry): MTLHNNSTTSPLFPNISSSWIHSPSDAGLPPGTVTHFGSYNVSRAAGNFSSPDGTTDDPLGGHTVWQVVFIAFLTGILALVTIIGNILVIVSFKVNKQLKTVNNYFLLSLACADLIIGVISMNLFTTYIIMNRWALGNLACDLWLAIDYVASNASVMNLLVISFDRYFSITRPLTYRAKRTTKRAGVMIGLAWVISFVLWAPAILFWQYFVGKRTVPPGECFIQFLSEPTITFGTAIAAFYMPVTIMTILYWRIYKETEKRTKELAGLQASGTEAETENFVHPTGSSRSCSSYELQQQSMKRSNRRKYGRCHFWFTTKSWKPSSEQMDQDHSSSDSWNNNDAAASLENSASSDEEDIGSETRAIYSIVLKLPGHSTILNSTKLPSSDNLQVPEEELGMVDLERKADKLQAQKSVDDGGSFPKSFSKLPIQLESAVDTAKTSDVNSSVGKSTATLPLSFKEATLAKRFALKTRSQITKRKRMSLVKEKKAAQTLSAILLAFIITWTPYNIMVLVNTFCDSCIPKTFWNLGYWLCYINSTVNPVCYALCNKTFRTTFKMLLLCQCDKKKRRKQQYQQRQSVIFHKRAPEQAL
Description: (§1) CHO cells expressing human muscarinic M1, 2, 3, 4 and 5 receptors, respectively, were used (Buckley N J et al., Mol. Pharmacol., 1989, vol. 35, no. 4, p. 469-476). Receptor binding experiments were carried out according to a conventional method (Luthin G R et al., Pharmacol Exp Ther., 1984, vol. 228, no. 3, p. 648-655). As a radiolabeled ligand, 0.8 nmol/L [^3H]N-Methylscopolamine was used; and as a nonspecific ligand, 1 μmol/L Atoropine was used.

[2] = molecular target: T2, human muscarinic M1 receptor (Homo sapiens, UniProt P11229); test: as above; settings: 0.8 nmol/L [3H]N-Methylscopolamine, CHO cells
T2 construct: expressed in transfected cells; host or cells: CHO cells
T2 sequence (P11229 1-460): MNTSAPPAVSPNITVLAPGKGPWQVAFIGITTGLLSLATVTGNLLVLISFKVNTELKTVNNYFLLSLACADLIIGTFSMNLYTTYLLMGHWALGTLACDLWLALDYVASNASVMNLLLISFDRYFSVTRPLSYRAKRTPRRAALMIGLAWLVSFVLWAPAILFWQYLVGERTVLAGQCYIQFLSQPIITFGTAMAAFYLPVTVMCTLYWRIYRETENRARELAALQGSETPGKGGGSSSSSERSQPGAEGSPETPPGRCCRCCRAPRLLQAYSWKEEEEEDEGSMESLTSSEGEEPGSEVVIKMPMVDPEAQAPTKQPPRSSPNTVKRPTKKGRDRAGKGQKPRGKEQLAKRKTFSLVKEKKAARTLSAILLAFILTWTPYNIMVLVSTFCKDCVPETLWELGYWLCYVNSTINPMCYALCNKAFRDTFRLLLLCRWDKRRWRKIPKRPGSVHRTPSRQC
Description: as §1

[3] = molecular target: T3, human muscarinic M2 receptor (Homo sapiens, UniProt P08172); test: as above; settings: 0.8 nmol/L [3H]N-Methylscopolamine, CHO cells
T3 construct: expressed in transfected cells; host or cells: CHO cells
T3 sequence (P08172 1-466): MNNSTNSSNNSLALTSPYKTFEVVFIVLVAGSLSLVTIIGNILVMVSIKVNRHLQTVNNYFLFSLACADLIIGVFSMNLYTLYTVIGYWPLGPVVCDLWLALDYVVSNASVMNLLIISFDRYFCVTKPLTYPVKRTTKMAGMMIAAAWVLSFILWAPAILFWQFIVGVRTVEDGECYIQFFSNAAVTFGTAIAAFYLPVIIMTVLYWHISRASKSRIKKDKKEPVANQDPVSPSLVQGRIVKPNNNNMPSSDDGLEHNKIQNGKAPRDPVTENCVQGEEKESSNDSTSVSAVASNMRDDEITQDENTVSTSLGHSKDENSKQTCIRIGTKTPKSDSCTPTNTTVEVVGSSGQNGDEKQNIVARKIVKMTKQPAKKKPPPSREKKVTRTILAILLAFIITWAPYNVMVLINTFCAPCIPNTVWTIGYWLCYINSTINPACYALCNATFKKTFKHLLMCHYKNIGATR
Description: as §1

[4] = molecular target: T4, human muscarinic M5 receptor (Homo sapiens, UniProt P08912); test: as above; settings: 0.8 nmol/L [3H]N-Methylscopolamine, CHO cells
T4 construct: expressed in transfected cells; host or cells: CHO cells
T4 sequence (P08912 1-532): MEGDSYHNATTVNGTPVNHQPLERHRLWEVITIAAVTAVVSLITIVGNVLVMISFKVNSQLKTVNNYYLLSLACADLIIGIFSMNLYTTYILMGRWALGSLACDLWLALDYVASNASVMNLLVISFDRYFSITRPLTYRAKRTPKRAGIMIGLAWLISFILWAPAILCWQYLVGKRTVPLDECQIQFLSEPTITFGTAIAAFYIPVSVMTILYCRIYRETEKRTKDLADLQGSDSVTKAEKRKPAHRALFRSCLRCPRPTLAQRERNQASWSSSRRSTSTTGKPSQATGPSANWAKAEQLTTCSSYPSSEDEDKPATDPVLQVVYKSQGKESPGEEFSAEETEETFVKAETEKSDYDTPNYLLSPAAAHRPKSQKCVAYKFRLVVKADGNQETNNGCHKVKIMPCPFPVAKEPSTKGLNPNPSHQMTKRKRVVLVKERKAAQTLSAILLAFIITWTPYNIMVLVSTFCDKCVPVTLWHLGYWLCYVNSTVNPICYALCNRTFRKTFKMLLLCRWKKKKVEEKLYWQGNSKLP
Description: as §1

[5] = molecular target: T5, human muscarinic M4 receptor (Homo sapiens, UniProt P08173); test: as above; settings: 0.8 nmol/L [3H]N-Methylscopolamine, CHO cells
T5 construct: expressed in transfected cells; host or cells: CHO cells
T5 sequence (P08173 1-479): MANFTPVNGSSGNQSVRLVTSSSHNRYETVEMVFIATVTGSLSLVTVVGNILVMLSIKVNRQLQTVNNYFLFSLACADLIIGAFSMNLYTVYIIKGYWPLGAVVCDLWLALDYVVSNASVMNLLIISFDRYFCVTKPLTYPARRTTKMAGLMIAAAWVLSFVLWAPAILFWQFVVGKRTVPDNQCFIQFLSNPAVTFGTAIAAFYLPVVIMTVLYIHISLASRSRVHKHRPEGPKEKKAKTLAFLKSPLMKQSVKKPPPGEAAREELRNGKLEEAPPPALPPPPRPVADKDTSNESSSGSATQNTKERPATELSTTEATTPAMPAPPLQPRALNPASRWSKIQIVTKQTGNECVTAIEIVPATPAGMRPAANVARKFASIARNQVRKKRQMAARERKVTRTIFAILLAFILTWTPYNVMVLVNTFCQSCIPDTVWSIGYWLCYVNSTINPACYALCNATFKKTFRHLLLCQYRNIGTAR
Description: as §1

[6] = test system: cyclophosphamide-induced pollakiuria model rats; test: Effects in cyclophosphamide-induced pollakiuria model rats (continuous cystometrograms); assay type: in vivo, rat; settings: 5 mg/kg intravenous; 20 minutes after vs 20 minutes before administration; compared to the vehicle group, p<0.05
Description: In the experiments, 6 to 7 female SD rats of 7 to 11 weeks old were used for one experimental group. The pollakiuria model (Lecci A et al., British Journal of Pharmacology, 2000, vol. 130, p. 331) was prepared by intraperitoneally administering cyclophosphamide (SIGMA) to rats (150 mg/kg). This model has been considered to be useful as a model of urine storage disorders associated with inflammatory disease, in particular, a model of pollakiuria of interstitial cystitis. Four to five hours after administration of cyclophosphamide, pollakiuria model rats were anesthetized by intraperitoneal administration of urethane (1 g/kg). Thereafter, a small incision was formed in the hypogastrium, and both ureters were ligated, followed by forming small incision in the ureters at the side of the kidney. Next, the bladder apex of each pollakiuria model rat was incised, and a polyethylene tube filled with physiological saline was inserted and indwelled. […]
The number of voiding episodes was counted based on CMGs. Taking the number of voiding episodes counted for a time period of 20 minutes before the administration of the test compound as 100%, the number of voiding episodes counted for a time period of 20 minutes after the administration of the test compound was expressed in %, which was used as the ratio of change in the number of voiding episodes. […]

[7] = test system: muscarinic receptor subtypes; test: Binding ability to human muscarinic receptors, overall statement; settings: any of M1 to M5; 10 μmol/L
Description: as §1

[8] = test system: mouse acetic acid writhing model; test: Mouse acetic acid writhing model (effects on pain); assay type: in vivo; settings: oral, 45 minutes before 0.6% acetic acid i.p., read-out: ED50 (dose by which the writhing response was inhibited by 50%)
Description: The mouse acetic acid writhing model, by which pain can be evaluated, was used to evaluate the analgesic effect of Compound (I).
Male ddY mice of 5 to 6 weeks old were fasted for 16 hours while allowing them to freely drink water, and a test compound solution or its vehicle was orally administered (10 mL/kg) to them. DMSO:Tween80:distilled water (1:1:8) or 27% hydroxypropyl-β-cyclodextrin (hereinafter “HP-β-CD”) was used as a vehicle of test compound solutions. Forty five minutes after the administration, 0.6% acetic acid solution (10 mL/kg) was intraperitoneally administered thereto to induce writhing response (i.e., the behavior to stretch the body and/or bend the body backward). The number of the writhing response observed for 10 minutes from 10 minutes after the administration of acetic acid solution was counted, which was taken as an indicator of pain.
Taking the mean number of writhing response of the vehicle group as 100%, the dose of a test compound by which the response was inhibited by 50% was expressed as “ED50”.

Compound | ED50 ([8]; Vehicle B (HP-β-CD)) | other results
COc1ccc(-n2nc(C3(O)CCC(O)CC3)cc2-c2ccc(C)cc2)cc1 (stereo not drawn) [Compound 3, 1-(1-(4-methoxyphenyl)-5-(p-tolyl)-1H-pyrazol-3-yl)cyclohexan-cis-1,4-diol] |  | Inhibition Ratio by 10 μmol/L Compound 3 (%) [1]: −4%; Inhibition Ratio by 10 μmol/L Compound 3 (%) [2]: −10%; Inhibition Ratio by 10 μmol/L Compound 3 (%) [3]: −6%; Inhibition Ratio by 10 μmol/L Compound 3 (%) [4]: −4%; Inhibition Ratio by 10 μmol/L Compound 3 (%) [5]: −1%; increase in the number of voiding episodes (ratio of change in the number of voiding episodes) [6]: significantly improved; binding to muscarinic receptor subtypes [7]: did not bind
COc1ccc(-n2nc(C3(O)CCC(=O)CC3)cc2-c2ccc(C)cc2)cc1 [Compound 4, 4-hydroxy-4-(1-(4-methoxyphenyl)-5-(p-tolyl)-1H-pyrazol-3-yl)cyclohexan-1-one] |  | ED50 ([8]; Vehicle A (DMSO:Tween80:distilled water=1:1:8)): 1.95 mg/kg
COc1ccc(-n2nc(C3(O)CCC(OC(C)=O)CC3)cc2-c2ccc(C)cc2)cc1 (stereo not shown) [Compound 12, c-4-hydroxy-4-(1-(4-methoxyphenyl)-5-(p-tolyl)-1H-pyrazol-3-yl)-cyclohexan-r-1-yl acetate] | 1.77 mg/kg | 
COc1ccc(-n2nc(C3(O)CCC(O)CC3)cc2-c2ccc(C)nc2)cc1 (stereo not drawn) [Compound 15, 1-(1-(4-methoxyphenyl)-5-(6-methylpyridin-3-yl)-1H-pyrazol-3-yl)cyclohexan-cis-1,4-diol] | 6.07 mg/kg | 
COc1ccc(-c2nc(C3(O)CCC(O)(C(F)(F)F)CC3)sc2-c2ccc(C)cc2)cc1 (stereo not drawn) [Compound 46, 1-(4-(4-methoxyphenyl)-5-(p-tolyl)thiazol-2-yl)-4-(trifluoromethyl)cyclohexan-cis-1,4-diol] | 9.65 mg/kg | 
Cc1ccc(-c2cc(C3(O)CCC(O)CC3)nn2-c2ccc(C#N)cc2)cc1 (stereo not shown) [Compound 49] | 2.69 mg/kg | 
COc1ccc(-n2nc(C3(O)CCC(O)CC3)cc2-c2ccc(C#N)cc2)cc1 (stereo not shown) [Compound 51] | 4.69 mg/kg | 
COc1ccc(-n2nc(C3(O)CCC(O)CC3)cc2-c2ccc(C)cc2)cc1F (stereo not shown) [Compound 54] | 3.73 mg/kg | 
COc1ccc(-n2nc(C3(O)CCC(OC(=O)OC4CCCCC4)CC3)cc2-c2ccc(C)cc2)cc1 (stereo not drawn) [Compound 60, cyclohexyl 4-hydroxy-4-(1-(4-methoxyphenyl)-5-(p-tolyl)-1H-pyrazol-3-yl)-cis-cyclohexyl carbonate] | 6.18 mg/kg | 
CCOC(=O)OC1CCC(O)(c2cc(-c3ccc(C)cc3)n(-c3ccc(OC)cc3)n2)CC1 (stereo not shown) [Compound 61] | 4.79 mg/kg | 
